This is an account of results in US20040034201A1, “Enhanced affinity hyaluronan binding peptides” (priority 1997, published 2004).

Like-named read-outs stand apart in the source and are kept apart here.

The test system of one test is 10T1/2 fibroblasts. The test is described as follows: Cell proliferation in response to serum (hemocytometer counts). The test is classed as cell-based. The conditions noted are these: 100 ug/mL peptide or PD98059 50 ug/mL, 48 h. The method, then: 10T1/2 fibroblasts were grown to semi-confluence and were incubated with enhanced affinity hyaluronan binding peptide (shown in SEQ.ID.NO.:3) at a concentration of 100 ug/mL for 48 h. The cells were then trypsinized in 0.12% trypsin and counted using a hematocytometer. Released cells were stained with trypan blue and only viable cells were counted.

Test [1] relates to Ras-transformed 10T1/2 fibroblasts. Description: Apoptosis (Hoechst dye positive nuclei). The test is classed as cell-based. The settings on record: 100 ug/mL peptide or PD98059 50 ug/mL; 48 h. The method, then:
Ras-transformed 10T1/2 fibroblasts were grown to sub-confluence and were incubated with enhanced affinity hyaluronan binding peptide (shown in SEQ.ID.NO.:3) at a concentration of 100 ug/mL for 48 h. The cells were then stained with Hoechst dye using standard procedures and the percentage of apoptotic cells were determined by detection of positive stain in the nucleus of randomly selected cells.

For test [2] the following is noted: peptide of WO 93/21312 with carboxy-terminal histidine; cited from earlier work.
Test [3] in a line: HA binding of biotinylated peptides on HA-derivatized ELISA plates. The method, then:
A 15-mer phage display library was obtained from Chiron Inc. (CA). Hyaluronan (HA) was biotinylated and mixed with streptavidin-sepharose (Sigma) and washed. The Biotinylated HA was incubated with the phage library, then recovered with streptavidin-sepharose. The phage biotinylated HA-streptavidin -sepharose mixture was washed 4 times with phosphate buffered saline (PBS) and recovered phage were plated on a bacteria lawn in petri dishes. Clones were isolated and assessed for their ability to bind to HA. For the first screen, a total 75 clones were obtained after 4 cycles of screening. To assess the specificity of binding of these clones to HA, two approaches were taken. In the first, the ability of the clones to bind to biotin-sepharose or to streptavidin-sepharose were assessed. Clones were recovered from the bacteria lawn and mixed with biotin-sepharose and streptavidin-sepharose. Sepharose beads were washed 4 times with PBS and plated onto a bacteria lawn. In the second assay, clones were mixed with excess (100 ug/mL) HA (mean molecular weight: 700,000 daltons (Hyal, Ontario, Canada) together with biotinylated HA. After mixing the biotinylated HA was recovered with streptavidin-sepharose, washed as above and plated onto a bacteria lawn. Clones were sequenced in an automatic sequencer. A schematic diagram illustrating the isolation of enhanced affinity hyaluronan binding peptides from the 15-mer phage display library is shown in FIG. 1.
Enhanced affinity HA binding peptides mimicking sequences obtained from the phage display library and scrambled peptides prepared from these sequences were tested for their HA binding properties. HA was derivatized to NUNC ELISA plates and biotinylated peptides were added to the plates and incubated for 2 h at room temperature. Plates were washed 4 times with PBS and then incubated with streptavidin-peroxidase for 1 h, washed, developed with hydrogen peroxide and their optical densities were determined. Controls were conducted using BSA-coated ELISA wells.

The subject of test [4] is Fibroblast (ras transformed). The test is described as follows: Random locomotion by image analysis, ras-transformed 10T1/2 fibroblasts on fibronectin. The test is classed as cell-based. The method, then: (§1) Ras-transformed 10T1/2 or parental 10T1/2 fibroblasts (Egan, S. E. et al., Science 238: 202-205, 1987; Hardwick, C. et al., J. Biol. Chem. 117: 1343-1350, 1992) were cultured in DMEM containing 10% fetal bovine serum (FBS) and maintained in 5% CO2 humidified atmospheric condition. Every second passage, cells were maintained in 600 ug/mL G418 for one passage to select for maintenance of the mutant active ras-geneticin construct in cells. Cells were passaged at confluence and utilized under 20 passages. Macrophages were obtained from lung lavage 1 h after bleomycin insertion (Gelzleichter, T. R. et al., Fund. Appl. Toxicol. 30: 39-46, 1996) and used immediately in assays. Neutrophils were obtained from human blood as described and used immediately.
(§2) For routine analysis of random locomotion, 10T1/2 fibroblasts or leukocytes were subcultured into culture flasks coated with 20 ug/mL fibronectin and maintained in DMEM plus 10% FBS for 24-48 h. The enhanced affinity hyaluronan binding peptide (shown in SEQ.ID.NO.:3) or scrambled peptides were incubated with the cultures at concentrations of 50 ng to 1 ug per mL. […] Filming was conducted for up to 24 h with images recorded every 20 min.

The subject of the next test is Alveolar macrophages. Description: Random locomotion by image analysis, alveolar macrophages. The conditions noted are these: nuclear displacement by image analysis, n = 100 cells. The test is classed as cell-based. How it is done: as §1, §2
Another test relates to Human neutrophils. The test is described as follows: Chemotaxis in Boyden chamber, human neutrophils to IL-8. In kind it is cell-based. The conditions noted are these: MTT blue, n = 3 replicates, the values are: MTT absorbance (chemotaxis). How it is done: as §1
(§3) To assess the effects of enhanced affinity hyaluronan binding peptides and scrambled peptides on chemotaxis, a modified multi-well boyden chamber was utilized as described by Shi, Y. et al. (J. Immunol. Methods 164: 149-154, 1993).

Another test relates to Rat alveolar macrophages. Description: Chemotaxis in Boyden chamber, rat alveolar macrophages to C5a. In kind it is cell-based. The conditions noted are these: MTT blue, n = 3 replicates, the values are: MTT absorbance (chemotaxis). How it is done: as §1, §3
The subject of a further test is S1 macrophage cell line. The test is described as follows: Chemotaxis in Boyden chamber, S1 macrophage cell line to C5a. In kind it is cell-based. The conditions noted are these: MTT blue, n = 3 replicates, the values are: MTT absorbance (chemotaxis).
Excerpt: as §3

Another test has as its system punch biopsy wound. The test is described as follows: Rat punch biopsy model of skin repair. The test is classed as in vivo. How it is done: Three-month-old female Fischer rats were anesthesized and subjected to […] full thickness punch biopsies. Wounds were filled with a sterile solution of 1% collagen type 1 gel containing either PBS alone, HA binding peptide (shown in SEQ.ID.NO.:3) (20 mg/mL) or scrambled peptide (20 mg/mL) that contained the same amino acids as the HA binding peptide but in a random order. 100 uL of the collagen solution was applied to the punch biopsy wound and allowed to gel over 20 min. The wounds were then covered with a protective plastic shield that was sewn into the skin. Wounds were recovered from euthenized rats with a 9 mm punch biopsy.
Recovered punch biopsies were extracted with RIPA buffer and total protein was determined with a Biorad protein assay. Protein (50 ug) was loaded onto each lane and proteins were separated by electrophoresis on SDS-PAGE. Separated proteins were transferred to a nitrocellulose blot and the blot was processed for reactivity to anti-RHAMM antisera or anti-CD44 antibody (Dillon, P. W. et al., J. Surg. Res. 57: 170-173, 1994).
Messenger RNA was isolated by Micro-FastTrack Kit (Invitrogen, San Diego, Calif.). The quality of RNA samples was confirmed by denaturing gel electrophoresis. Reverse transcription was performed by using First Strand cDNA Synthesis kit (Clontech, Polo Alco, Calif.). Briefly, 0.2 ug of mRNA was used to generate cDNA using oligo(dT) 18 primer. Samples containing 0.2 ug of mRNA per time point was heat-denatured in DEPC-treated water for 2 min at 70° C. and incubated at 42° C. for 1 h in a total volume of 20 uL of 20 pmol primers, 0.5 mM of each dNTP, 1 unit/uL of RNase inhibitor and 200 units/ug RNA of MMLV. The reaction was stopped by heating at 94° C. for 5 min and to destroy any DNase activity. The reaction mixture was diluted to a final volume of 100 uL and aliquots were stored at −80° C. until further use.
To distinguish between amplication of genomic DNA and complementary DNA, the primer pairs were designed to enclose at least one intron on the genomic sequences of RHAMM and beta-actin. […]

Regarding `COc1cccc(-c2cc(=O)c3ccccc3o2)c1N` [PD98059, reference compound], in the test on 10T1/2 fibroblasts, the “Number of Cells (×10^6)” value is recorded as 0.5 ± 0.1 ×10^6. Further, in [1], the “% Hoechst Positive Nuclei” value came out at 40 ± 2.5%.

With KLRSQLVHHH, in test [2], the “ability to bind HA” value is given as “unable to bind to HA”.

Turning to STMMSRSHKTRSCHH, the “ability to bind HA” value in [3] is reported as “can bind to HA”.

For the compound STMMSRSHKTRSHH, the “ability to bind HA” value in test [3] is reported as “can bind to HA”. In addition, the “Concentrations optimal for inhibiting cell motility” value in test [4] (10T1/2 fibroblasts or leukocytes, tested 50 ng to 1 ug per mL) was 50 to 100 ng/mL. Besides, the “Rate of Locomotion, random locomotion” value is reported as 10.83 ± 1.07 um/h in test [4] (Fibroblast (ras transformed), nuclear displacement by image analysis, n = 100 cells) and 3.24 ± 0.53 um/h in the test on Alveolar macrophages. The Rate of Locomotion, chemotaxis in the test on Human neutrophils amounted to 0.088 ± 0.009; with Rat alveolar macrophages it was 0.425 ± 0.028; with S1 macrophage cell line, 0.238 ± 0.014. Further, in the test with 10T1/2 fibroblasts, the “Number of Cells (×10^6)” value is reported as 2.4 ± 0.2 ×10^6. Further, the “% Hoechst Positive Nuclei” value in [1] was 4.9 ± 0.9%. In addition, the “HA accumulation within the remodelling dermal layer” value with punch biopsy wound (at 24 h, biotinylated aggrecan staining) is reported as “increase in HA accumulation”. For the same compound, the “keratinocyte resurfacing of the wound (re-epithelialization)” value in the test on punch biopsy wound (rat, applied in collagen gel to the wound, 24 h after injury) is listed as “inhibited keratinocyte resurfacing of the wound”. Moreover, the “number of fibroblasts at the wound site” value in the test on punch biopsy wound (rat, peptide 20 mg/mL in collagen gel) is reported as “reduced the number of fibroblasts”.

As for “STMMSRSHKTRSHHV [peptide of the Formula III with a valine residue at the C-terminal]”, in [3], the “ability to bind HA” value is “Enhanced affinity binding”.

For TMTRPHFHKRQLVLS, in test [3], the “ability to bind HA” value is given as “Enhanced affinity binding”.
